Experimental findings from ChEMBL document CHEMBL3351264, “Piperazinyl-oxadiazoles as selective sphingosine-1-phosphate receptor agonists” (Bioorg Med Chem Lett, 2014) are described below.

Where only a bound is given, the exact number is not on record here.

Series [1] has as its target T1, Sphingosine 1-phosphate receptor 3 (Homo sapiens, UniProt Q99500). The series can be described thus: Agonist activity at human S1P3 receptor expressed in human EDG3-bla U2OS cells after 18 hrs by beta-arrestin recruitment assay. Type of series: cell-based. For orientation: Arrestin recruitment assays detect the binding of arrestin to an activated receptor.
In series [2] the target is Sphingosine 1-phosphate receptor 1 (Homo sapiens, UniProt P21453). The series can be described thus: Agonist activity at human S1P1 receptor expressed in human EDG1-bla U2OS cells after 18 hrs by beta-arrestin recruitment assay. Type of series: cell-based.
Sphingosine 1-phosphate receptor 1, sequence (P21453 whole entry): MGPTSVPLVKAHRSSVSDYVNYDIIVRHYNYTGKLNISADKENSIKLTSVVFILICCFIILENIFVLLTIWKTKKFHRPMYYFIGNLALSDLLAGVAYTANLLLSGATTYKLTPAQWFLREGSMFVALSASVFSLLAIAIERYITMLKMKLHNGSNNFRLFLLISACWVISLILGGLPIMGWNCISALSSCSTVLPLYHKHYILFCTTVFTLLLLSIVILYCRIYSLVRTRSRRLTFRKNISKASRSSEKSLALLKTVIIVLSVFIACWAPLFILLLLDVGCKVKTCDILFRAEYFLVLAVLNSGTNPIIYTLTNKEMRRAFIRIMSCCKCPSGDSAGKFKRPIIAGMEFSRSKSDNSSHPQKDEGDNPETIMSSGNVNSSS
Series [3] has as its target T1, Sphingosine 1-phosphate receptor 3. The series can be described thus: Partial agonist activity at human S1P3 receptor expressed in human EDG3-bla U2OS cells after 18 hrs by beta-arrestin recruitment assay. It counts as cell-based.
The species entered for a further series is Homo sapiens. The series can be described thus: Selectivity ratio of EC50 for human S1P3 receptor to EC50 for human S1P1 receptor.
The subject of series [4] is Plasma. The series can be described thus: Drug level in rat plasma treated with 3 mg/kg, po. It counts as ADME, organism-based. Details: dose 3 mg/kg, route oral. The settings on record: in vivo.
The test system of the next series is Rattus norvegicus. Description: Toxicity in Lewis rat assessed as reduction in circulating lymphocyte count at 3 mg/kg, po after 4 hrs. The settings on record: in vivo. Details: dose 3 mg/kg, route oral. Type of series: organism-based.
For series [5], the system named is Plasma. Description: Drug metabolism in rat plasma assessed as 2-amino-3-(5-chloro-4-(3-(4-(cyclopentanecarbonyl)piperazin-1-yl)-1,2,4-oxadiazol-5-yl)-2-fluorophenoxy)propyl dihydrogen phosphate formation at 3 mg/kg, po. Type of series: ADME, organism-based. Also on record: dose 3 mg/kg, route oral. The following applies: in vivo.

T1 sequence (Q99500 whole entry): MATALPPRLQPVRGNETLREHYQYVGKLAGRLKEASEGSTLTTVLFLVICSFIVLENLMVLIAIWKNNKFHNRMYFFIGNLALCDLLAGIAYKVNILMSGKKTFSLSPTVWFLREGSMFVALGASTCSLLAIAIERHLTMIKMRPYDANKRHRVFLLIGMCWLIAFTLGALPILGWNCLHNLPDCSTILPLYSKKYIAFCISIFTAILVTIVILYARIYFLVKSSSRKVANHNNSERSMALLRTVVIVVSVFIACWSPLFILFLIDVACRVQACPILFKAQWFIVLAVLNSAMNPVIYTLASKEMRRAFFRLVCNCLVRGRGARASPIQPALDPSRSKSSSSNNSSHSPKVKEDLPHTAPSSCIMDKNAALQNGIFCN

Turning to `O=C(O)CCOc1cc(Cl)c(-c2nc(N3CCN(C(=O)C4CCCC4)CC3)no2)cc1F`, the EC50 in series [1] was > 10000 nM; in series [2], 240 nM.
The matching figures for `CC1(C)CC(C(=O)N2CCN(c3noc(-c4cc(F)c(OC[C@@H](O)CO)cc4Cl)n3)CC2)C1`: > 10000 nM and 1100 nM.
Regarding `N[C@@H](CO)COc1cc(Cl)c(-c2noc(N3CCN(C(=O)c4cccc(Cl)c4)CC3)n2)cc1F`, the 50% effective concentration (EC50) in series [1] is > 10000 nM; in series [2], 12 nM.
In the case of `CC1(C)CC(C(=O)N2CCN(c3noc(-c4cc(F)c(OC[C@@H](N)CO)cc4Cl)n3)CC2)C1`, the EC50 is 450 nM in series [1] and 3.1 nM in series [2]. This compound also returned a %max in series [3] of 63%.
As for `N[C@@H](CO)COc1cc(Cl)c(-c2noc(N3CCN(C(=O)C4CCCC4)CC3)n2)cc1F`, the 50% effective concentration (EC50) in series [1] was > 10000 nM; in series [2], 55 nM.
As for `CCC(C)(C)C(=O)N1CCN(c2noc(-c3ccccc3OC)n2)CC1`, in series [2], the concentration giving a half-maximal response (EC50) was determined as 3600 nM.
Take `N[C@H](CO)COc1cc(Cl)c(-c2nc(N3CCN(C(=O)C4CCCC4)CC3)no2)cc1F`: the EC50 in series [1] is > 10000 nM; in series [2], 420 nM.
`N[C@H](COc1cc(Cl)c(-c2nc(N3CCN(C(=O)C4CCCC4)CC3)no2)cc1F)COP(=O)(O)O`: the EC50 was found to be 940 nM in series [1] and 0.5 nM in series [2]. Also, in the series filed under Homo sapiens, the Ratio EC50 is 2000. Further, the Drug metabolism result in the series on Plasma [4] is recorded as “metabolite_detected”.
For `N[C@@H](CO)COc1cc(Cl)c(-c2nc(N3CCN(C(=O)C4CCC4)CC3)no2)cc1F`, the 50% effective concentration (EC50) in series [1] is > 10000 nM; in series [2] it was 17 nM.
In the case of `CC1(C)CC(C(=O)N2CCN(c3noc(-c4cc(F)c(OCCC(=O)O)cc4Cl)n3)CC2)C1`, the EC50 in series [1] was > 10000 nM; in series [2] it was 2700 nM.
For `N[C@@H](CO)COc1cc(Cl)c(-c2noc(C3CCN(C(=O)C4CCCC4)CC3)n2)cc1F`, in that order: > 10000 nM and 45 nM.
For `C[C@H](O)COc1cc(Cl)c(-c2nc(N3CCN(C(=O)C4CC(C)(C)C4)CC3)no2)cc1F`, in that order: > 10000 nM and 1100 nM.
For `N[C@@H](CO)COc1c(Cl)cc(-c2nc(N3CCN(C(=O)c4cccc(Cl)c4)CC3)no2)cc1Cl`, in that order: > 10000 nM and > 5400 nM.
With `CC1(C)CC(C(=O)N2CCN(c3noc(-c4cc(F)c(OCCO)cc4Cl)n3)CC2)C1`, the EC50 in series [1] is > 10000 nM; in series [2], 910 nM.
As for `N[C@@H](CO)COc1cc(Cl)c(-c2nc(N3CCN(C(=O)C4CCCC4)CC3)no2)cc1F`, in the series with Rattus norvegicus, the Activity entry is “Toxic”. Moreover, the values for the EC50 in series [1] and in series [2] were > 10000 nM and 1.7 nM, respectively. Also, in the series on Plasma [5], the Drug metabolism entry is listed as “metabolite_detected”.
Regarding `N[C@@H](CO)COc1cc(Cl)c(-c2nc(N3CCN(C(=O)C4CCCCC4)CC3)no2)cc1F`, the 50% effective concentration (EC50) in series [1] is > 10000 nM; in series [2], 1.2 nM.
`CCC(C)(C)C(=O)N1CCN(c2noc(-c3cc(F)c(OCC(N)CO)cc3Cl)n2)CC1` (configuration not stated) showed a concentration giving a half-maximal response (EC50) in series [2] of 46 nM.
With `N[C@@H](CO)COc1cc(Cl)c(-c2nc(N3CCN(C(=O)c4cccc(Cl)c4)CC3)no2)cc1F`, the EC50 in series [1] was > 10000 nM; in series [2] it was 4.1 nM.
The matching figures for `CC1(C)CC(C(=O)N2CCN(c3noc(-c4cc(F)c(OC[C@H](O)CO)cc4Cl)n3)CC2)C1`: > 10000 nM and 1200 nM.
For the compound `CC1(C)CC(C(=O)N2CCN(c3noc(-c4cc(F)c(OCC(=O)O)cc4Cl)n3)CC2)C1`, the EC50 in series [1] and in series [2] was > 10000 nM throughout.
With `CC1(C)CC(C(=O)N2CCN(c3noc(-c4cc(F)c(OCCCO)cc4Cl)n3)CC2)C1`, the EC50 is > 10000 nM in series [1] and 1100 nM in series [2].
The matching figures for `O=C(O)C1CN(Cc2cc(Cl)c(-c3nc(N4CCN(C(=O)C5CCCC5)CC4)no3)cc2F)C1`: > 10000 nM and 2100 nM.
Turning to `N[C@@H](CO)COc1c(Cl)cc(-c2nc(N3CCN(C(=O)C4CCCCC4)CC3)no2)cc1Cl`, the EC50 in series [1] and in series [2] was > 10000 nM in each case.
Take `N[C@@H](CO)COc1cc(Cl)c(-c2nnc(N3CCN(C(=O)c4cccc(Cl)c4)CC3)s2)cc1F`: the EC50 in series [1] turned out to be 380 nM; in series [2], 2.3 nM. The same compound had a %max in series [3] of 48%.
Turning to `N[C@@H](CO)COc1c(Cl)cc(-c2nc(N3CCN(C(=O)C4CCCC4)CC3)no2)cc1Cl`, the figures for the EC50 in series [1] and in series [2] were > 10000 nM and 1600 nM, respectively.
On to `N[C@@H](CO)COc1cc(Cl)c(-c2nnc(N3CCN(C(=O)C4CCCC4)CC3)s2)cc1F`, for which the concentration giving a half-maximal response (EC50) in series [1] was 410 nM; in series [2], 0.5 nM. In series [3], the %max turned out to be 45%.
As for `CCc1cccnc1C(=O)N1CCN(c2noc(-c3cc(F)c(OC[C@@H](N)CO)cc3Cl)n2)CC1`, the EC50 in series [1] was > 10000 nM; in series [2], 5.3 nM.
With `CC(C)(C(=O)N1CCN(c2noc(-c3cc(F)c(OC[C@@H](N)CO)cc3Cl)n2)CC1)C(F)(F)F`, the EC50 in series [1] stood at 4700 nM; in series [2] it was 9.8 nM. The %max in series [3] is 44%.
Consider `N[C@@H](CO)COc1cc(Cl)c(-c2nc(N3CCN(C(=O)c4ccccn4)CC3)no2)cc1F`, for which the figures for the concentration giving a half-maximal response (EC50) in series [1] and in series [2] were > 10000 nM and 92 nM, respectively.
The matching figures for `N[C@H](CO)COc1cc(Cl)c(-c2nc(N3CCN(C(=O)C4CCC4)CC3)no2)cc1F`: > 10000 nM and 1300 nM.
The matching figures for `N[C@H](CO)COc1cc(Cl)c(-c2nc(N3CCN(C(=O)c4cccc(Cl)c4)CC3)no2)cc1F`: > 10000 nM and 2400 nM.
The matching figures for `N[C@@H](CO)COc1cc(Cl)c(-c2nc(N3CCN(C(=O)c4ccccc4)CC3)no2)cc1F`: > 10000 nM and 6.5 nM.
Take `CC1(C)CC(C(=O)N2CCN(c3noc(-c4cc(F)c(OC[C@@H]5COC(=O)N5)cc4Cl)n3)CC2)C1`: the EC50 in series [1] and in series [2] was > 10000 nM in each case.

The term EC50 denotes the concentration that produces a half-maximal response. Read a low EC50 as an effect from little substance.
